# According to US20130203649A1, “INHIBITORS OF TLR SIGNALING BY TARGETING TIR DOMAIN INTERFACES” (UNIVERSITY OF MARYLAND, BALTIMORE, priority 2012, published 2013):
# No end group written: not given here.
# Tests used:
# TLR4 [1] = test: LPS-induced cytokine mRNA expression in mouse macrophages (real-time RT-PCR); assay type: cell-based
# Method: (§1) C57BL/6J mice were obtained from The Jackson Laboratory (Bar Harbor, Me.). Primary peritoneal macrophages were obtained by peritoneal lavage 4 days after intraperitoneal injection (3 ml) of sterile 3% thioglycolate broth. Washed cells were resuspended in RPMI 1640 which contained 2% FBS, 1% penicillin:streptomycin and 2 mM L-glutamine. After plating, cells were incubated overnight at 37° C. and then washed with PBS to remove non-adherent cells. Cells were exposed to peptides 30 min before stimulation with a TLR agonist.
# Total cellular RNA was isolated using Tripure from Roche (San Francisco, Calif.) following manufacture's protocol. RNA was then reverse transcribed using AMV Reverse Transcriptase from Promega (Madison, Wis.) with poly-T priming as per manufacturer's directions. cDNA was then quantified by real-time PCR using Applied Biosystems Fast SYBR Green PCR Master Mix and an ABI Prism 7500HT cycler. Primers used for detection: hypoxanthine phosphoribosyltransferase (HPRT) (forward: […] (SEQ ID NO:51), reverse: […] (SEQ ID NO:52)), TNFα (forward: […] (SEQ ID NO:53), reverse: […] (SEQ ID NO:54)), IL-1β (forward: […] (SEQ ID NO:55), reverse: […] (SEQ ID NO:56)), IFNβ (forward: […] (SEQ ID NO:57), reverse: CTCGGACCACCATCCAGG (SEQ ID NO:58)) and RANTES (forward: […] (SEQ ID NO:59), reverse: […] (SEQ ID NO:60)). The primers were designed using Primer Express 2.0 (Applied Biosystems). Using HPRT as reference, the ΔCt method was used to calculate relative gene expression. One-way ANOVA was preformed, as well as Dunnett's multiple comparison post hoc test with a p≦0.01 selected as the level of significance.
# Total RNA was isolated with Nucleospin RNA II kits (Macherey-Nagel, Bethlehem, Pa.), followed by DNase digestion. cDNA was synthesized from 1 μg RNA using Goscript transcriptase (Promega), and subjected to real-time PCR with gene-specific primers for HPRT, TNF-α, IL-1β, IFNβ, and RANTES on H7900 ABI system using Fast SYBR Green master mix (Applied Biosystems, Foster City, Calif.).
# To evaluate peptide-inhibitory activities, we first measured LPS-induced cytokine mRNA expression. […] […] Decoy peptide TM4 is derived from the BB loop of TRAM TIR; we previously identified this peptide as an effective TLR4 inhibitor (19).
# TLR4 [2] = test: LPS-induced cytokine secretion by mouse macrophages (ELISA/multiplex); assay type: cell-based; conditions: 5 or 20 μM peptide; LPS 100 ng/ml; supernatants 24 h
# Method: Cytokine secretion was measured in supernatant samples collected at 6 or 24 h time points and stored at −80° C. Samples were analyzed by a multiplex assay at the University of Maryland Baltimore Cytokine Core Facility using a Luminex 100 reader and Softmax Pro software, or by ELISA kits for mouse IL-6 or TNF-α from BioLegend (San Diego, Calif.) and LT-4000 microplate reader.
# A total of 2×10^6 cells was plated in 12-well plates and treated with peptides for 30 min prior to LPS stimulation. TNF-α, IL-1β, IL-6, and IFN-β were measured using ELISA kits from BioLegend (San Diego, Calif.), as recommended by the manufacturer.
# TLR4 [3] = test: LPS-induced STAT1-Y701 phosphorylation in macrophages (immunoblotting); assay type: cell-based, mouse; conditions: 2 h after LPS
# TLR4 [4] = test: LPS-induced MAPK (ERK, JNK, p38) activation in mouse macrophages (Western analysis); assay type: cell-based
# Method: Cellular protein extracts were isolated by addition of 240 μL per well cold lysate buffer (20 mM Tris, 50 mM NaCl, 1.5 mM MgCl2, 2 mM EDTA, 10 mM NaF, 2 Mm DTT, 1 mM Na3VO4, 1% Triton). Cells were incubated with lysis solution for 30 min on agitator at 4° C. Lysate was then collected and centrifuged at 14,000 g for 10 minutes at 4° C. After quantification using BioRad protein assay, protein samples were added to Laemmli buffer and then boiled for 10 min. Samples were then resolved by SDS-10% PAGE in Tris/glycine/SDS buffer (25 mM Tris, 250 mM glycine, 0.1% SDS), and transferred onto Immobilon P transfer membranes (Millipore, Bedford, Mass.) (100 V, 1.5 h, 4° C.). Membranes were blocked for 1 h in TBS-T (20 mM Tris-HCl, 150 mM NaCl, 0.1% Tween 20) containing 5% nonfat milk, then probed for overnight at 4° C. with the respective antibodies (Abs) (dilution 1:1000 in TBS-T with 2% BSA). After washing in TBS-T, membranes were incubated with secondary HRP-conjugated, donkey anti-rabbit IgG (1:10,000 dilution in TBS-T with 5% nonfat milk) for 1 h at room temperature. Membranes washed five times in TBS-T before development with ECL reagents (GE Healthcare) according to manufacturer's directions.
# HEK293T cells were transfected with indicated plasmids using Superfect Transfection Reagent (Qiagen). Twenty-four hours posttransfection, the cells were lysed using the buffer containing 20 mM HEPES (pH 7.4), 150 mM NaCl, 10 mM NaF, 2 mM Na3VO4, 1 mM EDTA, 1 mM EGTA, 0.5% Triton X-100, 0.1 M DTT, 1 mM PMSF, and protease inhibitor mixture (Roche, Indianapolis, Ind.). Rabbit Ab against phospho-ERK, phospho-JNK, MyD88 (D80F5), STAT1-Y701, total STAT1, and GAPDH were purchased from Cell Signaling Technology (Beverly, Mass.). Rabbit anti-phospho-p38 Ab was purchased from Promega (Madison, Wis.). Goat anti-TLR4 (M−16), rabbit anti-TLR4 (H-80), anti-HA-HRP (F-7), and rabbit anti-b-actin Ab were purchased from Santa Cruz Biotechnology. Mouse anti-Flag M2 and rabbit anti-HA Ab were from Sigma-Aldrich. GFP Ab (A1122) was from Invitrogen. Protein was quantified using Bio-Rad protein quantification kit. Equal amount of protein was loaded and analyzed by 10% SDS-PAGE and immunoblotting. The cell extracts containing equal amount of protein were incubated with 1 μg Ab for 2 h, followed by 4-h incubation with 25 μl protein G agarose beads (Roche); the beads were then washed four times with lysis buffer, boiled in […] sample loading buffer, and analyzed by immunoblotting.
# We next examined whether TRAM peptides inhibit the TLR4-mediated p38, ERK, and JNK MAPK activation. Murine macrophages pretreated with peptides for 30 min were challenged with LPS. Cell lysates were collected 30 min post-stimulation and analyzed for MAPK phosphorylation by Western analysis. Consistent with peptide effects on steady-state mRNA, both TM4 and TM6 inhibited activation of all three MAPKs (FIG. 5C). The inhibition of MAPKs by TM4 or TM6 was long lasting; it persisted for at least 1 h after LPS stimulation (data not shown). To characterize further the effects of TRAM peptides on MAPKs, murine macrophages were treated with TRAM peptides, but not challenged by LPS.
# TLR4 [5] = test: Inhibition of TLR4 signaling in thioglycollate-elicited mouse macrophages (effective concentration, overall inhibitory activity); assay type: cell-based; conditions: TLR4 pathway; thioglycollate-elicited mouse macrophages
# Method: as §1
# TIRAP/Mal functions to facilitate MyD88 recruitment to the activated TLR4 and TLR2, presumably through a simultaneous interaction with receptor and MyD88 TIR domains. Therefore, multiple TIR:TIR interaction sites are expected in TIRAP TIR. The decoy peptide approach was used to obtain leads on the functional protein-protein interfaces within TIRAP/Mal, a TLR adapter protein. To this end, eleven TIRAP TIR-derived decoy peptides were designed to be structurally homologous to the TLR4 TIR-derived decoy peptides used previously (1), so that each peptide represents a non-fragmented patch of the TIRAP TIR surface, with the entire domain encompassed by the set of peptides. The TIRAP TIR-derived decoy peptides were synthesized in tandem with the cell-permeating sequence of Antennapedia homeodomain (21) and each peptide was tested for the ability to inhibit TLR4 and TLR2 signaling in primary mouse macrophages. Peptide sequences and the structural regions they represent are shown in reference (30).
# C57BL/6J mice were obtained from The Jackson Laboratory (BarHarbor, Me.). Harvesting, culturing, and stimulation of peritoneal macrophages were described in previous publications (1, 18, 19). Escherichia coli K235 LPS (34) was used at the final concentration of 100 ng/ml. The 2,3-bis(palmitoyloxy)-(2-RS)-propyl-N-palmitoyl-(R)-Cys-Ser-Lys4-OH (P3C) and S[2,3-bis(palmitoyloxy)-(2-RS)-propyl]-[R]-Cys-Ser-Lys4-OH (P2C) (EMC Microcollections, Tubingen, Germany) were used at 500 and 50 ng/ml, respectively. Oligonucleotide (ODN) 1668 and low m.w. polyinosinic-polycytidylic acid [poly(I:C)] in complex with LyoVec were obtained from InvivoGen; these agonists were used at 2.5 μM and 400 ng/ml, respectively.
# TLR4 [6] = conditions: from references (1, 22); cited from earlier work
Sequence,"LPS-induced (TLR4-mediated) cytokine mRNA expression (TLR4 [1]; 5 or 20 μM peptide 30 min before LPS, 1 or 5 h)",LPS-induced cytokine secretion (TLR4 [2]),LPS-induced STAT1-Y701 phosphorylation (TLR4 [3]),"LPS-induced p38, ERK, and JNK MAPK activation (TLR4 [4]; lysates 30 min after LPS)",Effective conc. (TLR4 [5]),LPS-induced cytokine mRNA induction (TLR4 [1]; peritoneal macrophages (FIG. 14A)),Inhibition of TLR4 (overall) (TLR4 [6]),LPS-induced activation of ERK and JNK MAPKs (TLR4 [4]; peritoneal macrophages (FIG. 14B))
RQIKIWFQNRRMKWKKCEEFQVPGRGELH [TF4],inhibit,inhibit,inhibit,inhibit,20 µM,–,–,–
RQIKIWFQNRRMKWKKLHYRDFIPGVAIAA [4R4/4BB],–,–,–,–,20 µM,potently inhibit,quite potent inhibitor,potently inhibit
